Assay results taken from patent EP4752152A1, “STEROID COMPOUND, AND PREPARATION METHOD THEREFOR AND USE THEREOF” (Cholesgen (Shanghai) Co.Ltd., priority 2023, dated 2025).

These compounds were tested on SREBP pathway (assay: SREBP luciferase reporter gene system (SRE-luciferase assay)). Conditions: Homo sapiens, Huh-7, 16 h, Huh-7/SRE-luc cells, sterol-deficient medium, 0.01-10 µM.
Format: cell-based, human
In short: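 Huh-7 cells stably carrying LDLR promoter-luciferase plus GFP were treated 16 h in sterol-deficient medium (5% lipoprotein-deficient serum, 2 µM lovastatin, 10 µM mevalonic acid) at 0.01–10 µM. Luciferase/GFP ratio measured as pathway activity; inhibition versus DMSO fitted to a four-parameter model for IC50.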

| Structure (SMILES) | IC50 |
| --- | --- |
| COc1c(F)cccc1C(O)CCC[C@@H](C)[C@H]1CC[C@H]2C3=C(F)C[C@H]4[C@@H](O)[C@@H](O)CC[C@]4(C)[C@H]3CC[C@]12C (stereo partly drawn) [Compound 48, (1R,3aR,5aR,6R,7S,9aR,9bR,11aR)-4-fluoro-1-[(2R)-6-(3-fluoro-2-methoxyphenyl)-6-hydroxyhexan-2-yl]-9a,11a-dimethyl-2,3,3a,5,5a,6,7,8,9,9a,9b,10,11,11a-tetradecahydro-1H-cyclopenta[1,2-a]phenanthrene-6,7-diol] | 0.203 µM |
| COc1ccc(C(O)CCC[C@@H](C)[C@H]2CC[C@H]3C4=C(F)C[C@H]5[C@@H](O)[C@@H](O)CC[C@]5(C)[C@H]4CC[C@]23C)cc1 (stereo partly drawn) [Compound 51, (1R,3aR,5aR,6R,7S,9aR,9bR,11aR)-4-fluoro-1-[(2R)-6-hydroxy-6-(4-methoxyphenyl)hexan-2-yl]-9a,11a-dimethyl-2,3,3a,5,5a,6,7,8,9,9a,9b,10,11,11a-tetradecahydro-1H-cyclopenta[1,2-a]phenanthrene-6,7-diol] | 0.212 µM |
| C[C@H](CCCC(O)c1ccc(OC(F)(F)F)cc1F)[C@H]1CC[C@H]2[C@H]3[C@H](CC[C@]12C)[C@@]1(C)CC[C@H](O)[C@H](O)[C@@H]1CC3(F)F (stereo partly drawn) [Compound 62, (1R,3aS,3bS,5aR,6R,7S,9aR,9bS,11aR)-4,4-difluoro-1-[(2R)-6-{2-fluoro-4-[(trifluoromethyl)oxy]phenyl}-6-hydroxyhexan-2-yl]-9a,11a-dimethylhexadecahydro-1H-cyclopenta[1,2-a]phenanthrene-6,7-diol] | 0.728 µM |
| COc1ccccc1C(O)CCC[C@@H](C)[C@H]1CC[C@H]2C3=C(F)C[C@H]4C[C@@H](O)CC[C@]4(C)[C@H]3CC[C@]12C (stereo partly drawn) [Compound 73, (1R,3aR,5aR,7S,9aS,9bR,11aR)-4-fluoro-1-[(2R)-6-hydroxy-6-(2-methoxyphenyl)hexan-2-yl]-9a,11a-dimethyl-2,3,3a,5,5a,6,7,8,9,9a,9b,10,11,11a-tetradecahydro-1H-cyclopenta[1,2-a]phenanthren-7-ol] | 0.55 µM |
| C[C@H](CCCC(O)c1ccccc1F)[C@H]1CC[C@H]2[C@H]3[C@H](CC[C@]12C)[C@@]1(C)CC[C@H](O)CC1CC3(F)F (stereo partly drawn) [Compound 74, (1R,3aS,3bR,7S,9aS,9bS,11aR)-4,4-difluoro-1-[(2R)-6-(2-fluorophenyl)-6-hydroxyhexan-2-yl]-9a,11a-dimethylhexadecahydro-1H-cyclopenta[1,2-a]phenanthren-7-ol] | 0.68 µM |
| C[C@H](CCCC(O)c1ccncc1)[C@H]1CC[C@H]2[C@H]3[C@H](CC[C@]12C)[C@@]1(C)CC[C@H](O)[C@H](O)[C@@H]1CC3(F)F (stereo partly drawn) [Compound 76, (1R,3aS,3bS,5aR,6R,7S,9aR,9bS,11aR)-4,4-difluoro-1-[(2R)-6-hydroxy-6-(pyridin-4-yl)hexan-2-yl]-9a,11a-dimethylhexadecahydro-1H-cyclopenta[1,2-a]phenanthrene-6,7-diol] | 0.9 µM |
| C[C@H](CCCC(O)c1cccnc1F)[C@H]1CC[C@H]2[C@H]3[C@H](CC[C@]12C)[C@@]1(C)CC[C@H](O)[C@H](O)[C@@H]1CC3(F)F (stereo partly drawn) [Compound 80, (1R,3aS,3bS,5aR,6R,7S,9aR,9bS,11aR)-4,4-difluoro-1-[(2R)-6-(2-fluoropyridin-3-yl)-6-hydroxyhexan-2-yl]-9a,11a-dimethylhexadecahydro-1H-cyclopenta[1,2-a]phenanthrene-6,7-diol] | 0.514 µM |
| C[C@H](CCCC(O)c1cccc(OC(F)(F)F)c1)[C@H]1CC[C@H]2C3=C(F)C[C@H]4[C@@H](O)[C@@H](O)CC[C@]4(C)[C@H]3CC[C@]12C (stereo partly drawn) [Compound 88, (1R,3aR,5aR,6R,7S,9aR,9bR,11aR)-4-fluoro-1-[(2R)-6-hydroxy-6-{3-[(trifluoromethyl)oxy]phenyl}hexan-2-yl]-9a,11a-dimethyl-2,3,3a,5,5a,6,7,8,9,9a,9b,10,11,11a-tetradecahydro-1H-cyclopenta[1,2-a]phenanthrene-6,7-diol] | 0.622 µM |
